Experimental data: publication PMC10739246 (ACS Bio & Med Chem Au, 2023)
Values after ≈ are worked out from the molar mass of the structure shown. Read-outs that look alike come from different tables or passages of the source. Residues, ends and D or L forms follow the SMILES beside them.

What was measured:
[1] = tested on: E. coli (W3110); test: MIC, microdilution, E. coli W3110; format: cell-based, Escherichia coli
[2] = tested on: norfloxacin-resistant clinical isolate of E. coli; test: MIC, microdilution, norfloxacin-resistant clinical isolate of E. coli; format: cell-based, Escherichia coli; conditions: read-out: MIC E. coli (norfloxacin-resistant strain)
[3] = tested on: P. aeruginosa (PAO1); test: MIC, microdilution, P. aeruginosa PAO1; format: cell-based, Pseudomonas aeruginosa
[4] = tested on: K. pneumoniae (ATCC 10031); test: MIC, K. pneumoniae ATCC 10031; format: cell-based, Klebsiella pneumoniae
[5] = tested on: S. aureus (CCUG1800T); test: MIC, microdilution, S. aureus CCUG1800T; format: cell-based, Staphylococcus aureus
[6] = tested on: S. aureus (ATCC 43300) MRSA; test: MIC, microdilution, MRSA ATCC 43300; format: cell-based, Staphylococcus aureus; conditions: for MIC: norfloxacin-resistant strain
[7] = tested on: E. faecalis (ATCC 19433); test: MIC, E. faecalis ATCC 19433; format: cell-based, Enterococcus faecalis
[8] = tested on: M. tuberculosis (MC26020); test: microbe, parasite or virus in culture; format: cell-based, Mycobacterium tuberculosis; conditions: for MIC: Mycobacterium tuberculosis, read-out: MIC M. tuberculosis (MC26020)
[9] = tested on: MreB in B. subtilis MW10; test: MreB mobility assay; format: cell-based, Bacillus subtilis; conditions: B. subtilis MW10, 1 h of antibiotic exposure
Description: MreB is an actin homologue that forms filamentous structures along the lateral axis of the cell. It moves along the length of the cells in a spiraling pattern thereby driving lateral peptidoglycan synthesis.[36],[37] MreB mobility is sensitive to inhibition of peptidoglycan synthesis and so far, every cell wall synthesis inhibitor we tested abolished MreB movement (see Figure S70 for examples).
Expression of msfGFP-MreB was induced with 0.3% xylose. Pictures were taken after 1 h of antibiotic exposure. Two images of the same field of view were recorded 30 s apart and overlaid in ImageJ to visualize MreB mobility. A perfect overlap (yellow) indicates stalled MreB movement, while distinct red and green foci are indicative of MreB mobility. Scale bar 2 μm.
Fig. S70: MreB motility in B. subtilis MW10 after treatment with different cell wall synthesis inhibitors. Expression of GFP-MreB was induced with 0.3% xylose. Cells were treated with 1x […]
Two images of the same field of view were recorded 30 sec apart and overlaid in ImageJ to visualize MreB mobility. A perfect overlap (yellow) indicates stalled MreB movement while distinct red and green spots are indicative of MreB mobility. Scale bar 2 µm.

[10] = tested on: MurG in B. subtilis TNVS175; test: MurG localization; format: cell-based, Bacillus subtilis; conditions: 1x MIC; 30 min (vancomycin) or 1 h;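 also: normal MurG forms small membrane spots and peptidoglycan inhibition gives large clusters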
[11] = tested on: cell wall biosynthesis in B. subtilis DSM402; test: Summary of cell wall synthesis experiments; format: cell-based, Bacillus subtilis
[12] = tested on: B. subtilis DSM402; conditions: for μM (concentration used, 1x MIC): Table 2, cells treated with 1x MIC
[13] = tested on: B. subtilis DSM402; test: Peptidoglycan integrity assay (acetic acid/methanol fixation); conditions: 1x MIC; 30 min (cell wall inhibitors) or 60 min
[14] = tested on: B. subtilis DSM402; test: Bacterial cytological profiling (BCP) in B. subtilis DSM402; format: cell-based, Bacillus subtilis; conditions: for DAPI / phase contrast / FM4-64: 1x MIC, 1 h; for DAPI: DNA condensation; for phase contrast: indicates cell lysis; for FM4-64: membrane stain; for gyrase inhibition / membrane damage: interpretation of BCP in B. subtilis
[15] = tested on: E. coli
[16] = tested on: E. coli W3110; test: Bacterial cytological profiling (BCP) in E. coli W3110; format: cell-based, Escherichia coli
[17] = tested on: E. coli BCB472; test: GlpT localization (inner membrane) in E. coli BCB472; conditions: 1x MIC, 1 h; GFP-tagged membrane protein
[18] = Escherichia coli, Gram-negative strain, average of duplicate experiments, read-out: MIC E. coli (W3110)
[19] = Klebsiella pneumoniae, ATCC10031
[20] = Enterococcus faecalis, ATCC19433
[21] = Gram-negative strain, average of duplicate experiments, read-out: MIC E. coli (W3110)
[22] = norfloxacin-resistant clinical isolate
[23] = read-out: MIC S. aureus (CCUG1800T)
[24] = interpretation of BCP in E. coli

Compound: CCn1cc(C(=O)O)c(=O)c2cc(F)c(N3CCN(C(=O)CNc4ccc(Br)cc4)CC3)cc21 [4b]
- MIC [1, 18]: 30.1 µM (≈ 16 µg/mL)
- MIC ([2]; Escherichia coli): > 964 µM
- MIC ([3]; Pseudomonas aeruginosa, PAO1): 723 µM (≈ 384 µg/mL)
- MIC [4, 19]: > 964 µM
- MIC ([5]; Staphylococcus aureus; Tab. S10, DNA gyrase side; strain not given, values equal S. aureus CCUG1800T of Table 1; read-out: MIC): 1.88 µM (≈ 0.999 µg/mL)
- MIC ([5]; Staphylococcus aureus; read-out: MIC S. aureus (CCUG1800T)): 1.88 µM (≈ 0.999 µg/mL)
- MIC ([6]; Staphylococcus aureus): > 964 µM
- MIC [7, 20]: 7.52 µM (≈ 4 µg/mL)
- MIC [8]: 3.76 µM (≈ 2 µg/mL)

Compound: CCn1cc(C(=O)O)c(=O)c2cc(F)c(N3CCN(C(=O)Cn4ccnc4)CC3)cc21 [8a]
- MIC [1, 18]: 4.67 µM (≈ 2 µg/mL)
- MIC ([1]; Escherichia coli, Tab. S10, topoisomerase IV side, strain not given, values equal E. coli W3110 of Table 1, read-out: MIC): 4.67 µM (≈ 2 µg/mL)
- MIC ([2]; Escherichia coli): 74.9 µM (≈ 32 µg/mL)
- MIC ([3]; Pseudomonas aeruginosa, PAO1): 150 µM (≈ 64 µg/mL)
- MIC [4, 19]: 9.35 µM (≈ 4 µg/mL)
- MIC ([5]; Staphylococcus aureus, read-out: MIC S. aureus (CCUG1800T)): 2.33 µM (≈ 0.996 µg/mL)
- MIC ([6]; Staphylococcus aureus): 299 µM (≈ 128 µg/mL)
- MIC [7, 20]: 14 µM (≈ 6 µg/mL)
- MIC [8]: 2.33 µM (≈ 0.996 µg/mL)

Compound: CCn1cc(C(=O)O)c(=O)c2cc(F)c(N3CCN(CN4C(=O)C(=O)c5cc(C)ccc54)CC3)cc21 [20b]
- MIC [1, 21]: 5.07 µM (≈ 2.5 µg/mL)
- MIC [2, 22]: >1039.59 µM
- MIC [3]: 16.24 µM (≈ 8 µg/mL)
- MIC [4]: 3.04 µM (≈ 1.5 µg/mL)
- MIC [5, 23]: 32.48 µM (≈ 16 µg/mL)
- MIC [6]: 259.89 µM (≈ 128 µg/mL)
- MIC [7]: 6.09 µM (≈ 3 µg/mL)
- MIC M. tuberculosis (MC26020) [8]: 129.94 µM (≈ 64 µg/mL)

Compound: CCn1cc(C(=O)O)c(=O)c2cc(F)c(N3CCN(CN4C(=O)C(=O)c5cc(OC)ccc54)CC3)cc21 [20c]
- MIC [1, 21]: 4.91 µM (≈ 2.5 µg/mL)
- MIC [2, 22]: 1006.88 µM (≈ 512 µg/mL)
- MIC [3]: 62.93 µM (≈ 32 µg/mL)
- MIC [4]: 503.44 µM (≈ 256 µg/mL)
- MIC [5, 23]: 31.46 µM (≈ 16 µg/mL)
- fold more active than norfloxacin [6]: 6.3 fold
- MIC [6]: 15.73 µM (≈ 8 µg/mL)
- MIC [7]: 251.72 µM (≈ 128 µg/mL)
- MIC M. tuberculosis (MC26020) [8]: >1006.88 µM

Compound: N[C@@H]1CON=C1O [D-Cyc, D-cycloserine]
- MreB mobility [9]: static with foci
- protein localization MurG [10]: patchy
- CWB inhibited? [11]: yes
- μM (concentration used, 1x MIC) [12]: 293.85 µM
- PG integrity [13]: compromised

Compound: CCCCCCCCCC(=O)N[C@@H](Cc1c[nH]c2ccccc12)C(=O)N[C@H](CC(N)=O)C(=O)N[C@@H](CC(=O)O)C(=O)N[C@@H]1C(=O)NCC(=O)N[C@@H](CCCN)C(=O)N[C@@H](CC(=O)O)C(=O)N[C@H](C)C(=O)N[C@@H](CC(=O)O)C(=O)NCC(=O)N[C@H](CO)C(=O)N[C@@H]([C@H](C)CC(=O)O)C(=O)N[C@@H](CC(=O)c2ccccc2N)C(=O)O[C@@H]1C [Dap, daptomycin, reference compound]
- DAPI [14]: regular
- phase contrast [14]: dark
- FM4-64 [14]: patchy
- gyrase inhibition [14]: no
- membrane damage [14]: yes

Compound: C[C@@H]1O[C@@H]1P(=O)(O)O [Fos, fosfomycin]
- MreB mobility [9]: static with foci
- protein localization MurG [10]: patchy/dispersed
- CWB inhibited? [11]: yes
- μM (concentration used, 1x MIC) [12]: 72.43 µM
- PG integrity [13]: compromised

Compound: NNC(=O)c1ccncc1 [INH, isoniazid, reference compound]
- MIC [8]: 1.82 µM (≈ 0.25 µg/mL)

Compound: CC(C)C[C@@H]1NC(=O)[C@@H](Cc2ccccc2)NC(=O)[C@H](CCN)NC(=O)[C@@H](NC(=O)[C@H](CCN)NC(=O)[C@@H](N)[C@@H](C)O)CCNC(=O)[C@H]([C@@H](C)O)NC(=O)[C@H](CCN)NC(=O)[C@H](CCN)NC1=O [PolBN, polymyxin B nonapeptide, reference compound] (HELM PEPTIDE1{T.[Dab].[Dab].[Dab].[dF].L.[Dab].[Dab].T}$PEPTIDE1,PEPTIDE1,3:R3-9:R2$$$V2.0; N-terminus assumed)
- FICI (fractional inhibitory concentration index) [15]: 0.0234
- MICC (MIC of the test compound alone) [15]: 128 µg/mL
- FICC (fractional inhibitory concentration of the test compound) ([15]; MICCcheckerboard/MICC): 0.0078
- MICCcheckerboard (MIC of the test compound in checkerboard assay) ([15]; combined with mupirocin): 1 µg/mL
- FICM (MICMcheckerboard/MICM) ([15]; mupirocin alone 64 µg/mL): 0.0156
- MICMcheckerboard (MIC of mupirocin in checkerboard assay) ([15]; mupirocin combined with the compound of the line): 1 µg/mL

Compound: CCn1cc(C(=O)O)c(=O)c2cc(F)c(N3CCN(C(=O)CNNC(=O)c4ccncc4)CC3)cc21 [compound 16]
- MIC [1, 21]: 64.45 µM (≈ 32 µg/mL)
- MIC [2, 22]: 32.22 µM (≈ 16 µg/mL)
- MIC [3]: 515.61 µM (≈ 256 µg/mL)
- MIC [4]: 12.08 µM (≈ 6 µg/mL)
- MIC ([5]; Tab. S10, DNA gyrase side; strain not given, values equal S. aureus CCUG1800T of Table 1; read-out: MIC): 2.01 µM (≈ 0.998 µg/mL)
- MIC [5, 23]: 2.01 µM (≈ 0.998 µg/mL)
- MIC [6]: 64.45 µM (≈ 32 µg/mL)
- MIC [7]: 2.01 µM (≈ 0.998 µg/mL)
- MIC M. tuberculosis (MC26020) [8]: 1 µM (≈ 0.496 µg/mL)
- DAPI [14]: condensed
- phase contrast [14]: dark
- FM4-64 [14]: patchy
- gyrase inhibition [14]: yes
- membrane damage [14]: yes
- CWB inhibited? [11]: no
- concentration (MIC against B. subtilis DSM402) ([12]; Tab. S13, concentrations represent MIC values): 2.01 µM
- μM (concentration used, 1x MIC) [12]: 2.01 µM
- PG integrity [13]: intact

Compound: polymyxin B [PolB, reference compound]
- concentration (MIC against E. coli W3110) ([1]; Tab. S11, concentrations represent MIC values): 0.83 µM
- DAPI ([16]; 1x MIC, 1 h, DNA condensation): dispersed
- phase contrast ([16]; 1x MIC, 1 h, indicates cell lysis): dark
- FM4-64 ([16]; 1x MIC, 1 h, membrane stain): patchy
- gyrase inhibition [16, 24]: no
- membrane damage [16, 24]: yes
- GlpT [17]: dispersed

Compound: tunicamycin
- MreB mobility [9]: static
- protein localization MurG [10]: patchy
- CWB inhibited? [11]: yes
- μM (concentration used, 1x MIC) [12]: 19.58 µM
- PG integrity [13]: compromised
